Test system: Plasmodium berghei
Assay: Luciferase/luciferin-expressing antifolate-resistant parasites were used to infect a culture of HepG2 cells that were pre-incubated with compounds. Infected hepatocytes emit light due to the luciferase reaction. Assay results are presented as the percent inhibition of light emission compared to control. […]
Assay type: functional
Conditions: sporozoite; for IC90: read-out: LUCIFERASE INFECTION ASSAY - IC90

Compound | IC90 [µM] | also measured
Cc1cc(C)nc(-n2nc(C)cc2NC(=O)CN2CCc3ccccc3C2)n1 | > 10 | IC50 (HEPG2TOX_HILL_SLOPE 7.28, HEPG2TOX_R_SQUARED 0.662, read-out: LUCIFERASE INFECTION ASSAY - IC50): > 10 µM
OC(CNCc1ccc(F)cc1)(c1ccccc1)c1ccc(F)cc1 (stereo unspecified) | > 9.72 | IC50 (HEPG2TOX_HILL_SLOPE 7.21, HEPG2TOX_R_SQUARED 0.703, read-out: LUCIFERASE INFECTION ASSAY - IC50): > 9.72 µM
O=C(Nc1nc(-c2ccccn2)cs1)C1CC1c1ccccc1F (stereo unspecified) | 3.57 | IC50 (HEPG2TOX_HILL_SLOPE 7.24, HEPG2TOX_R_SQUARED 0.0806, PBLUC_HILL_SLOPE 12.4, PBLUC_R_SQUARED 0.768, read-out: LUCIFERASE INFECTION ASSAY - IC50): 2.99 µM
CCCNC(=O)c1c(NC(=O)c2ccc(F)cc2F)nc2ccccn12 | 8.71 | IC50 (HEPG2TOX_HILL_SLOPE 7.34, HEPG2TOX_R_SQUARED 0.716, PBLUC_HILL_SLOPE 2.53, PBLUC_R_SQUARED 0.731, read-out: LUCIFERASE INFECTION ASSAY - IC50): 3.66 µM
Cc1ccc(NC(=O)/C=C/c2c(C)nn(CC(C)C)c2Cl)cc1 | > 10 | IC50 (HEPG2TOX_HILL_SLOPE 7.42, HEPG2TOX_R_SQUARED 0.403, read-out: LUCIFERASE INFECTION ASSAY - IC50): > 10 µM
CCOC(=O)c1sc2nc(CSc3ccccc3)nc(NCC(O)CN(C)C)c2c1C (stereo unspecified) | > 10 | IC50 (HEPG2TOX_HILL_SLOPE 7.33, HEPG2TOX_R_SQUARED 0.474, PBLUC_HILL_SLOPE 9.13, PBLUC_R_SQUARED 0.72, read-out: LUCIFERASE INFECTION ASSAY - IC50): 9.05 µM
CC(=O)N(/N=C/c1ccc(F)cc1)C1=NN(C(C)=O)C(c2ccc(F)cc2)S1 (stereo unspecified) | > 8.2 | IC50 (HEPG2TOX_HILL_SLOPE 7.43, HEPG2TOX_R_SQUARED 0.382, read-out: LUCIFERASE INFECTION ASSAY - IC50): > 8.2 µM
Cc1ccc(CSc2ccc([N+](=O)[O-])c3nonc23)cc1 | > 11 | IC50 (HEPG2TOX_HILL_SLOPE 7.3, HEPG2TOX_R_SQUARED 0.39, read-out: LUCIFERASE INFECTION ASSAY - IC50): > 11 µM
COc1cc(C)c(C(c2ccc(N(C)C)cc2)c2ccc(N(C)C)cc2)cc1C | 6.45 | IC50 (HEPG2TOX_HILL_SLOPE 7.41, HEPG2TOX_R_SQUARED 0.305, PBLUC_HILL_SLOPE 5.23, PBLUC_R_SQUARED 0.705, read-out: LUCIFERASE INFECTION ASSAY - IC50): 4.24 µM
COc1cc(Br)c(/C=C2/C(=O)Nc3cc(Cl)ccc32)cc1O | > 10 | IC50 (HEPG2TOX_HILL_SLOPE 7.49, HEPG2TOX_R_SQUARED 0.517, PBLUC_HILL_SLOPE 14.1, PBLUC_R_SQUARED 0.1, read-out: LUCIFERASE INFECTION ASSAY - IC50): 9.39 µM
O=C1N=C(Nc2cccnc2)S/C1=C/c1ccc2ncccc2c1 | 9.5 | IC50 (HEPG2TOX_HILL_SLOPE 7.45, HEPG2TOX_R_SQUARED 0.476, PBLUC_HILL_SLOPE 2.82, PBLUC_R_SQUARED 0.798, read-out: LUCIFERASE INFECTION ASSAY - IC50): 4.36 µM
O=C(Nc1ccc(Cl)cc1)Nc1ccccc1SCc1ncc(C(F)(F)F)cc1Cl | > 6.99 | IC50 (HEPG2TOX_HILL_SLOPE 7.43, HEPG2TOX_R_SQUARED 0.87, PBLUC_HILL_SLOPE 2.47, PBLUC_R_SQUARED 0.266, read-out: LUCIFERASE INFECTION ASSAY - IC50): 4.63 µM
COc1cc2c(cc1OC)C(c1cccs1)N(Cc1cc(-c3ccco3)on1)CC2 (stereo unspecified) | > 10 | IC50 (HEPG2TOX_HILL_SLOPE 7.23, HEPG2TOX_R_SQUARED 0.683, PBLUC_HILL_SLOPE 1.88, PBLUC_R_SQUARED 0.215, read-out: LUCIFERASE INFECTION ASSAY - IC50): 9.72 µM
Oc1ccc(Br)c(/C=C/c2ccc3cccc(O)c3n2)c1 | > 9.64 | IC50 (HEPG2TOX_HILL_SLOPE 7.26, HEPG2TOX_R_SQUARED 0.426, read-out: LUCIFERASE INFECTION ASSAY - IC50): > 9.64 µM
O=C(CNc1cccc(C(F)(F)F)c1)N/N=C/c1c2ccccc2c(Cl)c2ccccc12 | > 10 | IC50 (HEPG2TOX_HILL_SLOPE 7.3, HEPG2TOX_R_SQUARED 0.234, PBLUC_HILL_SLOPE 3.59, PBLUC_R_SQUARED 0.507, read-out: LUCIFERASE INFECTION ASSAY - IC50): 6.19 µM
O=C(/C=C/c1cn(-c2ccccc2)nc1-c1ccncc1)c1cccc(N2CCCC2=O)c1 | > 10 | IC50 (HEPG2TOX_HILL_SLOPE 7.23, HEPG2TOX_R_SQUARED 0.576, PBLUC_HILL_SLOPE 3.48, PBLUC_R_SQUARED 0.189, read-out: LUCIFERASE INFECTION ASSAY - IC50): 9.57 µM
c1ccc(CCNc2nccc3nc(-c4ccccc4)[nH]c23)cc1 | 4.09 | IC50 (HEPG2TOX_HILL_SLOPE 7.38, HEPG2TOX_R_SQUARED 0.753, PBLUC_HILL_SLOPE 1.8, PBLUC_R_SQUARED 0.435, read-out: LUCIFERASE INFECTION ASSAY - IC50): 1.21 µM

Compound | IC90 [µM] | also measured
CCC(=O)NC1=C(Nc2ccc(SC(F)F)cc2)C(=O)c2ccccc2C1=O | 4.5 | IC50 (HEPG2TOX_HILL_SLOPE 7.23, HEPG2TOX_R_SQUARED 0.37, PBLUC_HILL_SLOPE 1.96, PBLUC_R_SQUARED 0.792, read-out: LUCIFERASE INFECTION ASSAY - IC50): 1.47 µM
c1ccc(CN2CCOCC2)c(CNc2ncnc3sccc23)c1 | > 10 | IC50 (HEPG2TOX_HILL_SLOPE 7.26, HEPG2TOX_R_SQUARED 0.756, read-out: LUCIFERASE INFECTION ASSAY - IC50): > 10 µM
O=C(Nc1ccc(Cl)c(Cl)c1)Nc1c(-c2ccccc2)nc2ccccn12 | 4.52 | IC50 (HEPG2TOX_HILL_SLOPE 7.35, HEPG2TOX_R_SQUARED 0.457, PBLUC_HILL_SLOPE 10, PBLUC_R_SQUARED 0.727, read-out: LUCIFERASE INFECTION ASSAY - IC50): 3.63 µM
COCC(C)Nc1ncnc2scc(-c3ccc(OC)cc3)c12 (stereo unspecified) | 4.03 | IC50 (HEPG2TOX_HILL_SLOPE 7.42, HEPG2TOX_R_SQUARED 0.779, PBLUC_HILL_SLOPE 12.3, PBLUC_R_SQUARED 0.781, read-out: LUCIFERASE INFECTION ASSAY - IC50): 3.37 µM
O=C(N/N=C/c1cc(Cl)ccc1O)N/N=C/c1cc(Cl)ccc1O | > 8.99 | IC50 (HEPG2TOX_HILL_SLOPE 7.47, HEPG2TOX_R_SQUARED 0.53, read-out: LUCIFERASE INFECTION ASSAY - IC50): > 8.99 µM
COc1ccc(C(C)C)cc1-c1cnc(N)c(-c2cccc(C(F)(F)F)c2)c1 | > 8.54 | IC50 (HEPG2TOX_HILL_SLOPE 7.33, HEPG2TOX_R_SQUARED 0.431, PBLUC_HILL_SLOPE 11.3, PBLUC_R_SQUARED 0.541, read-out: LUCIFERASE INFECTION ASSAY - IC50): 8.01 µM
O=C(Nc1ccc2c(c1)OCO2)c1cnc(N2CCN(CCc3ccccc3)C2=O)o1 | > 10 | IC50 (HEPG2TOX_HILL_SLOPE 7.5, HEPG2TOX_R_SQUARED 0.498, PBLUC_HILL_SLOPE 1.96, PBLUC_R_SQUARED 0.361, read-out: LUCIFERASE INFECTION ASSAY - IC50): 3.61 µM
O=C(Cc1ccccc1)Nc1ccccc1C(=O)Nc1nc2ccccc2[nH]1 | > 10 | IC50 (HEPG2TOX_HILL_SLOPE 7.34, HEPG2TOX_R_SQUARED 0.432, read-out: LUCIFERASE INFECTION ASSAY - IC50): > 10 µM
O=C(Nc1cccc(C(F)(F)F)c1)Nc1ccccc1Sc1c(Cl)cncc1Cl | > 7.2 | IC50 (HEPG2TOX_HILL_SLOPE 7.44, HEPG2TOX_R_SQUARED 0.649, PBLUC_HILL_SLOPE 2.82, PBLUC_R_SQUARED 0.349, read-out: LUCIFERASE INFECTION ASSAY - IC50): 4.94 µM
Nc1ccc(-c2cn3c(-c4ccc(Oc5ccccc5)cc4)cnc3cn2)cn1 | > 8.7 | IC50 (HEPG2TOX_HILL_SLOPE 7.27, HEPG2TOX_R_SQUARED 0.167, PBLUC_HILL_SLOPE 11.9, PBLUC_R_SQUARED 0.186, read-out: LUCIFERASE INFECTION ASSAY - IC50): 7.28 µM
COc1cc(OC)c(NC(=O)CN2CCC(c3c[nH]c4ccccc34)CC2)cc1Cl | > 10 | IC50 (HEPG2TOX_HILL_SLOPE 7.32, HEPG2TOX_R_SQUARED 0.598, PBLUC_HILL_SLOPE 4.32, PBLUC_R_SQUARED 0.304, read-out: LUCIFERASE INFECTION ASSAY - IC50): 8.18 µM
Cc1ccc(C(=O)c2ccccc2C(=O)OC(C)C(=O)N(Cc2ccccc2)Cc2ccccc2)cc1 (stereo unspecified) | 9.62 | IC50 (HEPG2TOX_HILL_SLOPE 7.35, HEPG2TOX_R_SQUARED 0.243, PBLUC_HILL_SLOPE 15.7, PBLUC_R_SQUARED 0.159, read-out: LUCIFERASE INFECTION ASSAY - IC50): 8.36 µM
COCc1ccc(C(=O)Nc2ccc(-n3cnc4ccccc43)nc2)cc1 | > 10 | IC50 (HEPG2TOX_HILL_SLOPE 7.46, HEPG2TOX_R_SQUARED 0.472, PBLUC_HILL_SLOPE 11.4, PBLUC_R_SQUARED 0.343, read-out: LUCIFERASE INFECTION ASSAY - IC50): 9.69 µM
C/C(=N\Nc1nc2ccccc2o1)c1ccc2ccccc2c1O | > 10 | IC50 (HEPG2TOX_HILL_SLOPE 7.42, HEPG2TOX_R_SQUARED 0.127, PBLUC_HILL_SLOPE 13.1, PBLUC_R_SQUARED 0.536, read-out: LUCIFERASE INFECTION ASSAY - IC50): 8.85 µM
CCCNC(=O)c1c(NC(=O)c2cccc(OC)c2)nc2ccc(C)cn12 | 8.77 | IC50 (HEPG2TOX_HILL_SLOPE 7.34, HEPG2TOX_R_SQUARED 0.277, PBLUC_HILL_SLOPE 3.84, PBLUC_R_SQUARED 0.328, read-out: LUCIFERASE INFECTION ASSAY - IC50): 4.95 µM
NC(=O)c1ccc(-c2cc(-c3ccccc3)cnc2N)cc1 | 4.22 | IC50 (HEPG2TOX_HILL_SLOPE 7.43, HEPG2TOX_R_SQUARED 0.0328, PBLUC_HILL_SLOPE 16.6, PBLUC_R_SQUARED 0.439, read-out: LUCIFERASE INFECTION ASSAY - IC50): 3.7 µM
